Test results: article PMC9763333, “In vitro characterization of immune modulating drug-eluting immunobeads towards transarterial embolization in cancer” (Scientific Reports, 2022)
Several values for one entry are separate records, joined by “and”; a condition that tells them apart may be missing. Equal values may be shown once. Read-outs that look alike come from different tables or passages of the source. Blank lines part the entries; values can stand above or below the compound they belong to.

What was measured:
[1] = set-up: method as in PMID 28188808; details: 0.08 mmol irinotecan; cited from earlier work
[2] = Drug solubilization by salt formation in acid; type: physicochemical; details: T in °C in parentheses in the cell (20.1 or 21.1)
Description: The base form of each drug was suspended in deionized water and titrated with 0.1 N hydrochloric acid (Fisher Scientific, Hampton, NH) while stirring until all the base was solubilized and the volume adjusted to a final concentration of 2.5 mg/mL. The resulting solution was frozen, then lyophilized to yield solid drug-hydrochloride salt or used in its solubilized form for loading into DC Bead LUMI. […] Doxorubicin.HCl was readily solubilized and used without modification. […] A ZORBAX Eclipse Plus C8 reversed-phase column (Agilent) and UV detector at wavelength of 230 nm were used for GS-9620 analysis. The decomposition product of GS-9620 was analyzed with reversed phase high-performance liquid chromatography (Rp-HPLC) and LC/MS.

[3] = Drug release from DC Bead LUMI in saline; type: physicochemical; details: for release in saline from DC Bead LUMI after multiple washes in deionized water: single replicates, listed as DSR
Description: […] Briefly, drug-loaded DC Bead LUMI or LC Bead (62.5 µL) were placed in vessels with 50 mL of saline ([…], pH 7.4) and were agitated with upright rocking motion at a set maximum rocking speed of 10 (70 rpm) for 144 h at 37 °C using Ward's® Rotating Mixer. At scheduled time intervals identical to the loading time points, 1 mL of release media was withdrawn and used for drug quantification. To maintain 50 mL total elution volume, 1 mL of fresh saline pre heated to 37 °C was replaced at each timepoint. […] 2.4. The cumulative amount of drug released at each time point was calculated by multiplying the concentration of each sample aliquot by the total volume (50 mL) of release media and adding the sum of the amount of drug removed for sampling at prior time points. […] The 50 mL volume was chosen to ensure infinite sink conditions where the maximum possible concentration of eluted drug would be at least 10 times more dilute than the maximum solubility. This ensures the rate of release is not affected by solution concentration but is only a function of interactions of the bead, drug, and saline.

[4] = Washing of drug-loaded beads with deionized water and microscopic appearance; type: physicochemical
Description: (§1) Drug loading was performed in triplicate as previously reported[45] with slight modifications. […] Washing of beads is often a critical step in drug release studies as any drug left unbound to the beads affects the release profile and exaggerates the early burst release. […] However, washing was discontinued for TLR drugs as drug was continually observed even after multiple washes. […] The amount of drug loaded at the specified time points was calculated by subtracting the amount of drug remaining from the initial amount of drug in the loading solution and the cumulative amount of drug withdrawn for sampling. The maximum drug loaded in the beads was calculated once no further change in the concentration in the loading solution could be measured and before washing the beads. The relative percent drug loaded was defined as the maximum amount of drug loaded as a percent of the amount of SO3^- ions available in the beads on a molar basis using the following formula and the results are presented as the mean ± SD.

[5] = pKa measurement by triple titration in methanol–water co-solvent with Yasuda-Shedlovsky extrapolation; type: physicochemical; details: for pKa: methanol–water co-solvent, aqueous value by Yasuda-Shedlovsky extrapolation; for psKa1 / psKa2 / psKa3: methanol–water
Description: pKa measurements were performed by Pion Inc, UK Ltd using known methods as previously reported[47]–[50] or calculated by using software MoKa (Molecular Discovery, Borehamwood, Hertfordshire, UK, https://www.moldiscovery.com/software/moka/#references) or directly obtained from the literature. For GARD and DSR 6434, a triple titration was carried out under methanol–water co-solvent conditions from pH 2.0–12.0 at concentrations of 2.3–1.3 mM (the methanol mixing ratio varied from 49.0 to 28.9% w/w) and 1.5–0.9 mM (the methanol mixing ratio varied from 49.6 to 29.1% w/w), respectively.

[6] = Drug loading into DC Bead LUMI; type: physicochemical; details: for Relative percent drug loaded in DC Bead LUMI over time: listed as DSR; for Relative percent drug loaded (maximum, percent of SO3− available on a molar basis): mean (n = 3)
Description: as §1, with “DC Bead LUMI was analyzed for its elemental composition by MEDAC Inc. […] Drug” for “Drug”

SMILES: CCc1c2c(nc3ccc(OC(=O)N4CCC(N5CCCCC5)CC4)cc13)-c1cc3c(c(=O)n1C2)COC(=O)[C@]3(O)CC [irinotecan]
- time to load drug to DC Bead LUMI [1]: ≤ 10 min

- pH at which each drug dissolved for loading [2]: 1.65 (20.1)
- release behaviour in saline ([3]; DC Bead LUMI): rapid release
- removal of drug from beads by repeated washing with deionized water ([4]; DC Bead LUMI): partially removed
- aggregation of drug during washing / elution ([4]; deionized water and saline, microscopy): absence of aggregated
- pKa ([5]; read-out: pKa (first, measured)): 4.58
- pKa ([5]; read-out: pKa (second, measured)): 8.5
- pKa ([5]; read-out: pKa (third, measured)): 9.94
- psKa1 ([5]; dielectric constant 56.6): 4.18
- psKa2 ([5]; dielectric constant 56.6): 8.14
- psKa3 ([5]; dielectric constant 56.6): 10.7073
- psKa1 ([5]; dielectric constant 61.4): 4.3
- psKa2 ([5]; dielectric constant 61.4): 8.24
- psKa3 ([5]; dielectric constant 61.4): 10.5143
- psKa1 ([5]; dielectric constant 65.9): 4.39
- psKa2 ([5]; dielectric constant 65.9): 8.34
- psKa3 ([5]; dielectric constant 65.9): 10.3389
- Relative percent drug loaded in DC Bead LUMI over time ([6]; 5 min, single replicates): 39.5677% and 47.7348% and 48.9285%
- Relative percent drug loaded in DC Bead LUMI over time ([6]; 15 min, single replicates): 41.6488% and 50.8205% and 51.9687%
- Relative percent drug loaded in DC Bead LUMI over time ([6]; 30 min, single replicates): 42.6689% and 54.1338% and 55.2332%
- Relative percent drug loaded in DC Bead LUMI over time ([6]; 45 min, single replicates): 48.2468% and 57.0357% and 58.0924%
- Relative percent drug loaded in DC Bead LUMI over time ([6]; 60 min, single replicates): 49.3314% and 55.3694% and 56.4506%
- Relative percent drug loaded in DC Bead LUMI over time ([6]; 120 min, single replicates): 50.4129% and 60.3547% and 61.3625%
- Relative percent drug loaded in DC Bead LUMI over time ([6]; 180 min, single replicates): 49.4039% and 56.8373% and 57.8969%
- Relative percent drug loaded in DC Bead LUMI over time ([6]; 240 min, single replicates): 49.4386% and 53.9704% and 55.0722%
- Relative percent drug loaded in DC Bead LUMI over time ([6]; 300 min, single replicates): 48.7119% and 56.2576% and 57.3257%
- Relative percent drug loaded in DC Bead LUMI over time ([6]; 360 min, single replicates): 47.0211% and 54.6141% and 55.7064%
- Relative percent drug loaded in DC Bead LUMI over time ([6]; 420 min, single replicates): 47.0555% and 55.952% and 57.0246%
- Relative percent drug loaded in DC Bead LUMI over time ([6]; 480 min, single replicates): 47.3643% and 55.2849% and 56.3673%
- Relative percent drug loaded in DC Bead LUMI over time ([6]; 1440 min, single replicates): 46.9195% and 55.3847% and 56.4657%
- Relative percent drug loaded in DC Bead LUMI over time ([6]; 2880 min, single replicates): 43.3022% and 55.4842% and 56.5637%
- Relative percent drug loaded in DC Bead LUMI over time ([6]; 4320 min, single replicates): 46.6711% and 54.7234% and 55.8141%
- Relative percent drug loaded in DC Bead LUMI over time ([6]; 8640 min, single replicates): 45.7549% and 53.8658% and 54.9692%
- loading behaviour ([6]; DC Bead LUMI): Fast loading
- Relative percent drug loaded (maximum, percent of SO3− available on a molar basis) ([6]; DC Bead LUMI): 57%
- Relative percent drug loaded (maximum, percent of SO3− available on a molar basis) ([6]; DC Bead LUMI, listed as DSR-6434): 57.38%
- equivalent of drug loaded to sulfonated bead ([6]; DC Bead LUMI, mean ± SD): 0.16 ± 0.02 mM drug/ml beads
- Maximum drug loaded ([6]; DC Bead LUMI, mean ± SD, n = 3, base form except Dox (salt form)): 65.95 ± 6.96 mg drug/ml beads
- Maximum drug loaded (Triplicate), % ([6]; DC Bead LUMI, single replicates): 50.4129% and 60.3547% and 61.3625%
- Drug: sulfonate ([6]; molar ratio at maximum loading, DC Bead LUMI): 0.574
- Theoretical maximum loading level based on SO3− contents ([6]; per mL DC Bead LUMI, assuming 1:1 drug to sulfonate): 114.94 mg
SMILES: CCCCNc1nc(N)c2[nH]c(=O)n(Cc3ccc(OCCN(C)C)nc3)c2n1 [DSR 6434]
- release in saline from DC Bead LUMI after multiple washes in deionized water ([3]; 5 min): 11.6669 mg/mL of beads and 21.0618 mg/mL of beads and 12.3038 mg/mL of beads
- release in saline from DC Bead LUMI after multiple washes in deionized water ([3]; 15 min): 12.2718 mg/mL of beads and 15.5382 mg/mL of beads and 12.6826 mg/mL of beads
- release in saline from DC Bead LUMI after multiple washes in deionized water ([3]; 30 min): 12.9372 mg/mL of beads and 16.3714 mg/mL of beads and 14.5502 mg/mL of beads
- release in saline from DC Bead LUMI after multiple washes in deionized water ([3]; 45 min): 13.4518 mg/mL of beads and 17.0028 mg/mL of beads and 14.9641 mg/mL of beads
- release in saline from DC Bead LUMI after multiple washes in deionized water ([3]; 60 min): 13.786 mg/mL of beads and 17.7202 mg/mL of beads and 15.5663 mg/mL of beads
- release in saline from DC Bead LUMI after multiple washes in deionized water ([3]; 120 min): 14.3607 mg/mL of beads and 18.3129 mg/mL of beads and 16.228 mg/mL of beads
- release in saline from DC Bead LUMI after multiple washes in deionized water ([3]; 180 min): 16.0563 mg/mL of beads and 19.309 mg/mL of beads and 16.8971 mg/mL of beads
- release in saline from DC Bead LUMI after multiple washes in deionized water ([3]; 240 min): 15.1532 mg/mL of beads and 19.1241 mg/mL of beads and 17.0694 mg/mL of beads
- release in saline from DC Bead LUMI after multiple washes in deionized water ([3]; 300 min): 15.5267 mg/mL of beads and 19.8574 mg/mL of beads and 17.3452 mg/mL of beads
- release in saline from DC Bead LUMI after multiple washes in deionized water ([3]; 360 min): 16.1146 mg/mL of beads and 19.776 mg/mL of beads and 18.2574 mg/mL of beads
- release in saline from DC Bead LUMI after multiple washes in deionized water ([3]; 420 min): 15.8596 mg/mL of beads and 19.8188 mg/mL of beads and 17.9345 mg/mL of beads
- release in saline from DC Bead LUMI after multiple washes in deionized water ([3]; 480 min): 16.4167 mg/mL of beads and 20.0149 mg/mL of beads and 17.9173 mg/mL of beads
- release in saline from DC Bead LUMI after multiple washes in deionized water ([3]; 1440 min): 16.847 mg/mL of beads and 20.6066 mg/mL of beads and 18.2918 mg/mL of beads
- release in saline from DC Bead LUMI after multiple washes in deionized water ([3]; 2880 min): 17.1212 mg/mL of beads and 20.6727 mg/mL of beads and 18.4291 mg/mL of beads
- release in saline from DC Bead LUMI after multiple washes in deionized water ([3]; 4320 min): 17.0504 mg/mL of beads and 20.4416 mg/mL of beads and 18.5897 mg/mL of beads
- release in saline from DC Bead LUMI after multiple washes in deionized water ([3]; 8640 min): 16.3092 mg/mL of beads and 19.4828 mg/mL of beads and 17.2615 mg/mL of beads
